Test results as given in PubChem BioAssay (NCI).
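All cell lines were grown in 96-well plates and treated with compound for 48 hours. At the TGI there is no net growth.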

How the values were obtained:
Assay in all cases: NCI anticancer screen, dose series, 48 h
HCT-116 colon = tested on: HCT-116 colon
SR leukemia = tested on: SR leukemia
KM12 colon = tested on: KM12 colon
ACHN renal = tested on: ACHN renal
M19-MEL melanoma = tested on: M19-MEL melanoma
SW-620 colon = tested on: SW-620 colon
OVCAR-5 ovarian = tested on: OVCAR-5 ovarian
CCRF-CEM leukemia = tested on: CCRF-CEM leukemia
SK-OV-3 ovarian = tested on: SK-OV-3 ovarian
SNB-75 CNS = tested on: SNB-75 CNS
KM20L2 colon = tested on: KM20L2 colon
HOP-62 NSCLC = tested on: HOP-62 NSCLC
SF-295 CNS = tested on: SF-295 CNS
A498 renal = tested on: A498 renal
MALME-3M melanoma = tested on: MALME-3M melanoma
SK-MEL-2 melanoma = tested on: SK-MEL-2 melanoma
HCT-15 colon = tested on: HCT-15 colon
HCC-2998 colon = tested on: HCC-2998 colon
TK-10 renal = tested on: TK-10 renal
OVCAR-8 ovarian = tested on: OVCAR-8 ovarian
HOP-92 NSCLC = tested on: HOP-92 NSCLC
DLD-1 colon = tested on: DLD-1 colon
NCI-H522 lung = tested on: NCI-H522 lung
K-562 leukemia = tested on: K-562 leukemia
SNB-78 CNS = tested on: SNB-78 CNS
SF-539 CNS = tested on: SF-539 CNS
CAKI-1 renal = tested on: CAKI-1 renal
XF 498 CNS = tested on: XF 498 CNS
M14 melanoma = tested on: M14 melanoma
EKVX NSCLC = tested on: EKVX NSCLC
DMS 273 small cell lung = tested on: DMS 273 small cell lung
UACC-257 melanoma = tested on: UACC-257 melanoma
SN12C renal = tested on: SN12C renal
NCI-H226 lung = tested on: NCI-H226 lung
A549 NSCLC = tested on: A549 NSCLC
COLO 205 colon = tested on: COLO 205 colon
HL-60(TB) leukemia = tested on: HL-60(TB) leukemia
OVCAR-4 ovarian = tested on: OVCAR-4 ovarian
UO-31 renal = tested on: UO-31 renal
HT29 colon = tested on: HT29 colon
NCI-H23 lung = tested on: NCI-H23 lung
LXFL 529 NSCLC = tested on: LXFL 529 NSCLC
HOP-18 NSCLC = tested on: HOP-18 NSCLC
SK-MEL-28 melanoma = tested on: SK-MEL-28 melanoma
UACC-62 melanoma = tested on: UACC-62 melanoma
MOLT-4 leukemia = tested on: MOLT-4 leukemia
DMS 114 small cell lung = tested on: DMS 114 small cell lung
NCI-H460 lung = tested on: NCI-H460 lung
LOX IMVI melanoma = tested on: LOX IMVI melanoma
SF-268 CNS = tested on: SF-268 CNS
OVCAR-3 ovarian = tested on: OVCAR-3 ovarian
786-0 renal = tested on: 786-0 renal
SNB-19 CNS = tested on: SNB-19 CNS
RXF 393 renal = tested on: RXF 393 renal
IGROV1 ovarian = tested on: IGROV1 ovarian
SK-MEL-5 melanoma = tested on: SK-MEL-5 melanoma
RPMI-8226 leukemia = tested on: RPMI-8226 leukemia
U251 CNS = tested on: U251 CNS
RXF-631 renal = tested on: RXF-631 renal

CN(C)CC1CCC(=C2CCCC2)C1=O (centres undefined)
TGI (HCT-116 colon): 29.3 µM | TGI (SR leukemia): 21.1 µM | TGI (KM12 colon): 25.6 µM | TGI (ACHN renal): 21.4 µM | TGI (M19-MEL melanoma): 32.9 µM | TGI (SW-620 colon): > 20.9 µM | TGI (OVCAR-5 ovarian): 30.9 µM | TGI (CCRF-CEM leukemia): 9.54 µM | TGI (SK-OV-3 ovarian): > 100 µM | TGI (SNB-75 CNS): 30.7 µM | TGI (KM20L2 colon): 36.3 µM | TGI (HOP-62 NSCLC): 19.1 µM | TGI (SF-295 CNS): > 100 µM | TGI (A498 renal): 35.4 µM | TGI (MALME-3M melanoma): 11 µM | TGI (SK-MEL-2 melanoma): 33.5 µM | TGI (HCT-15 colon): 15.9 µM | TGI (HCC-2998 colon): 32.5 µM | TGI (TK-10 renal): 25.2 µM | TGI (OVCAR-8 ovarian): 39.1 µM | TGI (HOP-92 NSCLC): 20.1 µM | TGI (DLD-1 colon): 7.02 µM | TGI (NCI-H522 lung): 3.39 µM | TGI (K-562 leukemia): 8.76 µM | TGI (SNB-78 CNS): 34.4 µM | TGI (SF-539 CNS): 40 µM | TGI (CAKI-1 renal): > 100 µM | TGI (XF 498 CNS): 12.4 µM | TGI (M14 melanoma): 23.3 µM | TGI (EKVX NSCLC): 34.7 µM | TGI (DMS 273 small cell lung): 34.8 µM | TGI (UACC-257 melanoma): 31.8 µM | TGI (SN12C renal): 24.9 µM | TGI (NCI-H226 lung): 32.2 µM | TGI (A549 NSCLC): 39.8 µM | TGI (COLO 205 colon): 33.4 µM | TGI (HL-60(TB) leukemia): 15.4 µM | TGI (OVCAR-4 ovarian): 31 µM | TGI (UO-31 renal): 32.3 µM | TGI (HT29 colon): 32.6 µM | TGI (NCI-H23 lung): 36.3 µM | TGI (LXFL 529 NSCLC): 12.6 µM | TGI (HOP-18 NSCLC): 31.2 µM | TGI (SK-MEL-28 melanoma): 27.4 µM | TGI (UACC-62 melanoma): 31.4 µM | TGI (MOLT-4 leukemia): > 20.7 µM | TGI (DMS 114 small cell lung): 25 µM | TGI (NCI-H460 lung): 45.8 µM | TGI (LOX IMVI melanoma): 31.8 µM | TGI (SF-268 CNS): 26.4 µM | TGI (OVCAR-3 ovarian): 26.3 µM | TGI (786-0 renal): 19.7 µM | TGI (SNB-19 CNS): > 100 µM | TGI (RXF 393 renal): 27.9 µM | TGI (IGROV1 ovarian): 34.4 µM | TGI (SK-MEL-5 melanoma): 32 µM | TGI (RPMI-8226 leukemia): 4.81 µM

CCOc1nc(OCC)nc(-c2cccn2-c2ccccc2)n1
TGI (HCT-116 colon): > 100 µM | TGI (SR leukemia): 99.7 µM | TGI (KM12 colon): > 100 µM | TGI (ACHN renal): > 100 µM | TGI (M19-MEL melanoma): > 100 µM | TGI (SW-620 colon): > 100 µM | TGI (OVCAR-5 ovarian): > 100 µM | TGI (CCRF-CEM leukemia): > 100 µM | TGI (SK-OV-3 ovarian): 75 µM | TGI (HOP-62 NSCLC): > 100 µM | TGI (U251 CNS): 48.6 µM | TGI (SF-295 CNS): > 100 µM | TGI (A498 renal): > 100 µM | TGI (RXF-631 renal): > 100 µM | TGI (MALME-3M melanoma): 60.6 µM | TGI (SK-MEL-2 melanoma): 97.1 µM | TGI (HCT-15 colon): > 100 µM | TGI (HCC-2998 colon): > 100 µM | TGI (TK-10 renal): 89.2 µM | TGI (OVCAR-8 ovarian): > 100 µM | TGI (NCI-H522 lung): > 100 µM | TGI (K-562 leukemia): > 100 µM | TGI (SNB-78 CNS): > 100 µM | TGI (SF-539 CNS): > 100 µM | TGI (CAKI-1 renal): > 100 µM | TGI (M14 melanoma): > 100 µM | TGI (EKVX NSCLC): > 100 µM | TGI (DMS 273 small cell lung): > 100 µM | TGI (UACC-257 melanoma): > 100 µM | TGI (SN12C renal): > 100 µM | TGI (NCI-H226 lung): > 100 µM | TGI (A549 NSCLC): > 100 µM | TGI (HL-60(TB) leukemia): 82.5 µM | TGI (OVCAR-4 ovarian): > 100 µM | TGI (UO-31 renal): 67.9 µM | TGI (HT29 colon): > 100 µM | TGI (NCI-H23 lung): > 100 µM | TGI (SK-MEL-28 melanoma): > 100 µM | TGI (UACC-62 melanoma): > 100 µM | TGI (MOLT-4 leukemia): 57.4 µM | TGI (DMS 114 small cell lung): 86.8 µM | TGI (NCI-H460 lung): > 100 µM | TGI (SF-268 CNS): > 100 µM | TGI (OVCAR-3 ovarian): 69.3 µM | TGI (786-0 renal): > 100 µM | TGI (SNB-19 CNS): > 100 µM | TGI (RXF 393 renal): > 100 µM | TGI (IGROV1 ovarian): 89.3 µM

O=C(OC1CC(n2cc(F)c(=O)[nH]c2=O)OC1CSC(=O)c1ccccc1)c1ccccc1 (centres undefined)
TGI (HCT-116 colon): > 100 µM | TGI (KM12 colon): 91.2 µM | TGI (ACHN renal): > 100 µM | TGI (M19-MEL melanoma): 67 µM | TGI (SW-620 colon): > 100 µM | TGI (OVCAR-5 ovarian): > 100 µM | TGI (CCRF-CEM leukemia): > 100 µM | TGI (SK-OV-3 ovarian): > 100 µM | TGI (SNB-75 CNS): 65.6 µM | TGI (KM20L2 colon): 33.9 µM | TGI (HOP-62 NSCLC): > 100 µM | TGI (U251 CNS): 49.8 µM | TGI (SF-295 CNS): > 100 µM | TGI (A498 renal): > 100 µM | TGI (RXF-631 renal): 40.3 µM | TGI (MALME-3M melanoma): 84.5 µM | TGI (SK-MEL-2 melanoma): > 100 µM | TGI (HCT-15 colon): > 100 µM | TGI (HCC-2998 colon): 75.2 µM | TGI (TK-10 renal): > 100 µM | TGI (OVCAR-8 ovarian): > 100 µM | TGI (HOP-92 NSCLC): 56 µM | TGI (DLD-1 colon): > 100 µM | TGI (NCI-H522 lung): 87 µM | TGI (K-562 leukemia): > 100 µM | TGI (SNB-78 CNS): > 100 µM | TGI (SF-539 CNS): > 100 µM | TGI (M14 melanoma): > 100 µM | TGI (EKVX NSCLC): 90.5 µM | TGI (UACC-257 melanoma): 87.6 µM | TGI (SN12C renal): > 100 µM | TGI (NCI-H226 lung): 75.9 µM | TGI (A549 NSCLC): 92.4 µM | TGI (COLO 205 colon): 88.7 µM | TGI (HL-60(TB) leukemia): 53.3 µM | TGI (OVCAR-4 ovarian): > 100 µM | TGI (UO-31 renal): > 100 µM | TGI (HT29 colon): 34.4 µM | TGI (NCI-H23 lung): > 100 µM | TGI (LXFL 529 NSCLC): > 100 µM | TGI (HOP-18 NSCLC): 97.4 µM | TGI (SK-MEL-28 melanoma): > 100 µM | TGI (UACC-62 melanoma): > 100 µM | TGI (MOLT-4 leukemia): 81.1 µM | TGI (DMS 114 small cell lung): > 100 µM | TGI (NCI-H460 lung): > 100 µM | TGI (LOX IMVI melanoma): > 100 µM | TGI (SF-268 CNS): 68.8 µM | TGI (OVCAR-3 ovarian): 53.3 µM | TGI (786-0 renal): > 100 µM | TGI (SNB-19 CNS): > 100 µM | TGI (RXF 393 renal): 81.1 µM | TGI (IGROV1 ovarian): > 100 µM | TGI (RPMI-8226 leukemia): 57.4 µM
